Earlier results in patent US20070238698A1, “Method for manufacturing drinking water having chitosan” (Hsien-Chih Lin, priority 2006, published 2007).

Tests used:
Conditions in all cases: added to drinking water; experiments to animals
[1] = tested on: inoculated tumors
[2] = tested on: huge corrosion cell having ability of immunity
[3] = tested on: enteric microflora

Q: With chitosan oligosaccharide as the substance, how does the “effect on inoculated tumors” value [1] read?
A: reduced the inoculated tumors

Q: And the “effect on huge corrosion cell having ability of immunity” value [2]?
A: increase the huge corrosion cell having ability of immunity

Q: What about the “effect on enteric microflora of animals” value [3] of the same substance?
A: improve the enteric microflora of animals
